The text below walks through data of ChEMBL document CHEMBL4359860, “Tacrine-O-protected phenolics heterodimers as multitarget-directed ligands against Alzheimer's disease: Selective subnanomolar BuChE inhibitors” (Eur J Med Chem, 2019).

Molecules are shown by their SMILES. Activity calls are given as the source filed them. The calls are words filed in the database; no cut-off is given here.

The nature of data set [1]: Stability of compound in human plasma at 10 uM measured up to 360 mins by LC-MS analysis. In kind it is ADME, cell-free. Conditions: 6 h.
The target in data set [2] is T1, Cholinesterase (Equus caballus, UniProt P81908).
Description: Inhibition of equine serum BuChE assessed as dissociation constant for enzyme-inhibitor complex using butyrylthiocholine iodide as substrate measured for 125 secs by Ellman's method
Data set [3] addresses Acetylcholinesterase (Homo sapiens, UniProt P22303). The experiment in a line: Inhibition of human recombinant AChE expressed in HEK293 cells using […] as substrate preincubated with enzyme for 20 mins followed by substrate addition and measured after 5 mins by Ellman's method.
Data set [4] deals with T2, Cholinesterase (Homo sapiens, UniProt P06276). The experiment in a line: Potency index, ratio of tacrine IC50 to compound IC50 for human serum BuChe by Ellman's method.
For data set [5], the target named is T1, Cholinesterase. This is another data set of the same source.
Description: Inhibition of equine serum BuChE assessed as dissociation constant for enzyme-substrate-inhibitor complex using butyrylthiocholine iodide as substrate measured for 125 secs by Ellman's method
For data set [6], the system named is Cerebellar granule neurone. The experiment in a line: Neuroprotective activity against 6-OHDA-induced cytotoxicity in rat primary cerebellar granule neuron at 1 to 25 uM by MTT assay. In kind it is functional, cell-based.
Data set [7] concerns Cerebellar granule neurone. The experiment in a line: Cytotoxicity in rat Primary cerebellar granule neuron assessed as cell viability up to 5 uM after 24 hrs by MTT assay. It counts as cell-based.
Data set [8] is described as follows: Cytotoxicity against human HepG2 cells assessed as cell survival at 1 to 25 uM after 24 hrs by MTT assay relative to control. In kind it is cell-based. To be noted: read-out: Activity.
The target of data set [9] is T2, Cholinesterase. In words: Inhibition of human serum BuChe by Ellman's method.
The test system of a further data set is Primary neuron. The experiment in a line: Neuroprotective activity against serum/K+ deprivation induced cytotoxicity in rat primary neuronal cells up to 10 uM by MTT assay. In kind it is functional, cell-based.
Data set [10] deals with T3, Acetylcholinesterase (Electrophorus electricus, UniProt O42275).
Description: Inhibition of electric eel AChE assessed as dissociation constant for enzyme-inhibitor complex using acetylthiocholine iodide as substrate measured for 125 secs by Ellman's method
Data set [11] has as its target Amyloid-beta precursor protein (Homo sapiens) (UniProt P05067). To be noted: at 50 µM.
Description: Inhibition of amyloid beta (1 to 42) (unknown origin) self aggregation at 50 uM incubated for 48 hrs by thioflavin-T fluorescence method relative to control
In data set [12] the target is T3, Acetylcholinesterase. This is another data set of the same source.
Description: Inhibition of electric eel AChE assessed as dissociation constant for enzyme-substrate-inhibitor complex using acetylthiocholine iodide as substrate measured for 125 secs by Ellman's method

T2 sequence (P06276 whole entry): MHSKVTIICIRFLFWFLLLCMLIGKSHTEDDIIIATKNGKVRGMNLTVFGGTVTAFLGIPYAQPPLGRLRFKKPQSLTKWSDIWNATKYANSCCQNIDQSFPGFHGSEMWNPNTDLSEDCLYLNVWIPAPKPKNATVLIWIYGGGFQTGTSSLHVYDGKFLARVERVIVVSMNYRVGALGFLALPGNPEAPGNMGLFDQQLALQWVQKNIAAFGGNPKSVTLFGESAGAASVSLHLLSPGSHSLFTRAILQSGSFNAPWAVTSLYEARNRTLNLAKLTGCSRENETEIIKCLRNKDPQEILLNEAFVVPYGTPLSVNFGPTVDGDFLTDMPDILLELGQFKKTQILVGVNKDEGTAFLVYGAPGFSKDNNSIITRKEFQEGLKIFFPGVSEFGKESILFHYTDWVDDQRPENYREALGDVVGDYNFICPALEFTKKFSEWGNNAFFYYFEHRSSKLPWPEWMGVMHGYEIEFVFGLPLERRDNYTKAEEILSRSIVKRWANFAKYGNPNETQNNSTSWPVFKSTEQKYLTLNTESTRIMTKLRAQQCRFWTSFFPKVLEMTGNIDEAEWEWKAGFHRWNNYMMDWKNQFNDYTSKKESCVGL
T1 sequence (P81908 whole entry): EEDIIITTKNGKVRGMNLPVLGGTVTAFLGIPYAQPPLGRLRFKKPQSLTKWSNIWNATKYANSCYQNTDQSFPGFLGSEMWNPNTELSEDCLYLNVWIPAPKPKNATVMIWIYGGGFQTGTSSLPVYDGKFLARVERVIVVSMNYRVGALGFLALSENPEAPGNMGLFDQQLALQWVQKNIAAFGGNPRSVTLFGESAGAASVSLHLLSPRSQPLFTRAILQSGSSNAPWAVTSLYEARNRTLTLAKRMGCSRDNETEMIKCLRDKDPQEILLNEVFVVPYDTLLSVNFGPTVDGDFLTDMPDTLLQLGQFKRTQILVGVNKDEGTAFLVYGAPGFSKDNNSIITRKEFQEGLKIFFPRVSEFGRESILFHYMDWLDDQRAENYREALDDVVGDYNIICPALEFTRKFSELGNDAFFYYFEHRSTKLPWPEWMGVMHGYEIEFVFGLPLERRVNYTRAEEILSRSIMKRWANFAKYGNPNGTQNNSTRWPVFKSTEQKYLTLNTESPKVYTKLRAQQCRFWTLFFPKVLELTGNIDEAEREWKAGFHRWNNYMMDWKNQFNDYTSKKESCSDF
T3 sequence (O42275 whole entry): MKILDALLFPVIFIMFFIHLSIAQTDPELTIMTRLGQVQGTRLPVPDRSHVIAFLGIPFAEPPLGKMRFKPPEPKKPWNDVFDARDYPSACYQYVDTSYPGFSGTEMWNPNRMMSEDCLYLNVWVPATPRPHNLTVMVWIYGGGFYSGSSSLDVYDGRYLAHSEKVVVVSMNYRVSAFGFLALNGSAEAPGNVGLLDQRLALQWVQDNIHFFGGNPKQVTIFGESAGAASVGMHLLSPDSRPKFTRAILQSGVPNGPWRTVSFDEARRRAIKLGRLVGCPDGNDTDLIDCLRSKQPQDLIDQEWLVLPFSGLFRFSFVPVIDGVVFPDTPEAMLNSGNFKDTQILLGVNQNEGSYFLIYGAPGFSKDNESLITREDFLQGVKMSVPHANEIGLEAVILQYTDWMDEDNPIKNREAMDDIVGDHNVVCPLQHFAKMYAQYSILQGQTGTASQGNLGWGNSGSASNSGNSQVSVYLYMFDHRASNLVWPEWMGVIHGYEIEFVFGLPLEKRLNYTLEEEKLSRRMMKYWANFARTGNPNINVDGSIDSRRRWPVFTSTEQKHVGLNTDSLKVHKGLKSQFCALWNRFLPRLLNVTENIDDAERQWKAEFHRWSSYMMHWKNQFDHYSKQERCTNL
Amyloid-beta precursor protein (Homo sapiens), sequence (P05067 whole entry): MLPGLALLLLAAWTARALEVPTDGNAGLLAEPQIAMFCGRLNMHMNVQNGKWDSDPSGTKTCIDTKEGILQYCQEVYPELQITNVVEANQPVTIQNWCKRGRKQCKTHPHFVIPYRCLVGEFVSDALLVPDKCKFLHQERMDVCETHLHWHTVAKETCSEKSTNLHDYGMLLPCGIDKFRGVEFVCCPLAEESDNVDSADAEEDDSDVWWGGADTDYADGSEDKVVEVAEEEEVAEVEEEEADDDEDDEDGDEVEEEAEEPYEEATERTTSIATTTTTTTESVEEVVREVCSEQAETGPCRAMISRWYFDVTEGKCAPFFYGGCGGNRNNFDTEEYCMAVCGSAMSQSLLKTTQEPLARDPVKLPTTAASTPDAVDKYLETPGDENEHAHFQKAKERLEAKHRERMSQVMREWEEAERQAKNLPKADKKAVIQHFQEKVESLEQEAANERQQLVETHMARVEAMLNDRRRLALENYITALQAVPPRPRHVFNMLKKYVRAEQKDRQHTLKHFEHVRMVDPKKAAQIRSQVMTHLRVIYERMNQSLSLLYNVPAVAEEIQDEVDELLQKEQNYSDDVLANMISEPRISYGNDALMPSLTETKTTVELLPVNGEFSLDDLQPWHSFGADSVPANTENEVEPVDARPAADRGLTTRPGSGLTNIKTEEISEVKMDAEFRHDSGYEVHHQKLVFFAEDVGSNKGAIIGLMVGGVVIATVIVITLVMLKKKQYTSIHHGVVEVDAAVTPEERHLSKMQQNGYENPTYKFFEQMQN
Acetylcholinesterase (Homo sapiens, UniProt P22303), sequence (P22303 whole entry): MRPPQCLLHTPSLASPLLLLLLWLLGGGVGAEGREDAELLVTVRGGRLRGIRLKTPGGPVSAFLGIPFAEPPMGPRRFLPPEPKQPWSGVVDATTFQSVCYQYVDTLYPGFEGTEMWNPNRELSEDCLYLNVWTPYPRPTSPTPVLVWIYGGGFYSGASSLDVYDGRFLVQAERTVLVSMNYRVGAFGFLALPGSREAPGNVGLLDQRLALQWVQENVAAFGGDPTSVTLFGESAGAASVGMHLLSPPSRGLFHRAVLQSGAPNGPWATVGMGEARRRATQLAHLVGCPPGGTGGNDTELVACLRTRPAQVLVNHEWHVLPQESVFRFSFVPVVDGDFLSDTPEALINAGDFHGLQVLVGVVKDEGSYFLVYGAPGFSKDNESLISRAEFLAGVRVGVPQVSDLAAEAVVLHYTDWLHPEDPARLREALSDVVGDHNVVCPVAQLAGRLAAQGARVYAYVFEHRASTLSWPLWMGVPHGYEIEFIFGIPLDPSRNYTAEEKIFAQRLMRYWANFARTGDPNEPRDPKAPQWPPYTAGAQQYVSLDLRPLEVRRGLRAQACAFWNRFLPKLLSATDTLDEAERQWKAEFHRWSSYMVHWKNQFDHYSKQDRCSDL

For `COc1ccc(CCOCCCCCNc2c3c(nc4ccccc24)CCCC3)cc1OC`, the Stability result in data set [1] is given as “Stable”. In addition, the inhibition constant (Ki) at Cholinesterase [2] is 7 nM; at Cholinesterase [5], 1.9 nM; at Acetylcholinesterase [10], 170 nM; at Acetylcholinesterase [12], 55 nM. Also, the IC50 came to 168 nM on Acetylcholinesterase [3] and 0.515 nM against Cholinesterase [9]. Further, the Ratio IC50 at Cholinesterase [4] came out at 85. Moreover, in data set [6], the result was inactive. In data set [7], the Activity result is on record as “Non-Toxic”. Further, the viability at 24 h, 25 µM in data set [8] lay in the range of 60 to 70%. Besides, in the data set with Primary neuron, the outcome was Active. For the same molecule, the inhibition in data set [11] stood at 63.8%.
